These results are taken from patent US6872805B2 (Bristol-Myers Squibb Company, priority 2000, dated 2005).

Test [1] deals with HCV NS3/4A protease complex (Hepatitis C virus genotype 1a, UniProt P27958, C1454S/C1711G). The test can be described thus: Recombinant HCV NS3/4A protease complex FRET peptide assay (strain not stated). The conditions noted are these: IC50, NS3/4A protease enzyme assay, strain not stated; activity ranges. The class given is biochemical. The text has this: The purpose of this in vitro assay was to measure the inhibition of HCV NS3 protease complexes, derived from the BMS, H77C or J416S strains, as described below, by compounds of the present invention.
Serum from an HCV-infected patient was obtained from Dr. T. Wright, San Francisco Hospital. An engineered full-length cDNA template of the HCV genome (BMS strain) was constructed from DNA fragments obtained by reverse transcription-PCR (RT-PCR) of serum RNA and using primers selected on the basis of homology between other genotype 1a strains. […] The infectious clones, H77C (1a genotype) and J4L6S (1b genotype) were obtained from R. Purcell (NIH) and the sequences are published in genebank (AAB67036, see Yanagi, M., Purcell, R. H., Emerson, S. U. and Bukh, J. Proc. Natl. Acad. Sci. U.S.A. 94(16),8738-8743 (1997); AF054247, see Yanagi, M., St Claire, M., Shapiro, M., Emerson, S. U., Purcell, R. H. and Bukh, J, Virology 244 (1), 161-172. (1998)).
The BMS, H77C and J4L6S strains were used for production of recombinant NS3/4A protease complexes. DNA encoding the recombinant HCV NS3/4A protease complex (amino acid 1027 to 1711) for these strains were manipulated as described by P. Gallinari et al. (see Gallinari P, Paolini C, Brennan D, Nardi C, Steinkuhler C, De Francesco R. Biochemistry. 38(17):5620-32, (1999)). Briefly, a three-lysine solubilizing tail was added at the 3′-end of the NS4A coding region. The cysteine in the P1 position of the NS4A-NS4B cleavage site (amino acid 1711) was changed to a glycine to avoid the proteolytic cleavage of the lysine tag. Furthermore, a cysteine to serine mutation was introduced by PCR at amino acid position 1454 to prevent the autolytic cleavage in the NS3 helicase domain. The variant DNA fragment was cloned in the pET21b bacterial expression vector and the NS3/4A complex was expressed in E. coli BL21 (DE3) following the protocol described by P. Gallinari et al. (see Gallinari P, Brennan D, Nardi C, Brunetti M, Tomei L, Steinkuhler C, De Francesco R., J Virol. 72(8):6758-69 (1998)) with modifications. Briefly, NS3/4A expression was induced with 0.5 mM IPTG for 22 hr at 20° C. […] The cells were resuspended in lysis buffer (10 mL/g) consisting of 25 mM HEPES, pH 7.5, 20% glycerol, 500 mM NaCl, 0.5% Triton-X100, 1 ug/ml lysozyme, 5 mM MgCl2, 1 ug/ml DNaseI 5 mM β-Mercaptoethanol (βME), Protease inhibitor—EDTA free, homogenized and incubated for 20 mins at 4° C. The homogenate was sonicated and clarified by ultra-centrifugation at 235000 g for 1 hr at 4° C. Imidazole was added to the supernatant to a final concentration of 15 mM and the pH adjusted to 8.0. The crude protein extract was loaded on a Ni-NTA column pre-equilibrated with buffer B (25 mM HEPES, pH 8.0, 20% glycerol, 500 mM NaCl, 0.5% Triton-X100, 15 mM imidazole, 5 mM βME). The sample was loaded at a flow rate of 1 mL/min. The column was washed with 15 column volumes of buffer C (same as buffer B except with 0.2% Triton-X100). The protein was eluted with 5 column volumes of 200 mM Imidazole in buffer.
NS3/4A protease complex-containing fractions were pooled and loaded on a desalting column Superdex-S200 pre-equilibrated with buffer D (25 mM HEPES, pH 7.5, 20% glycerol, 300 mM NaCl, 0.2% Triton-X100, 10 mM βME). Sample was loaded at a flow rate of 1 mL/min. NS3/4A protease complex-containing fractions were pooled and concentrated to approximately 0.5 mg/ml.

Test [2] relates to HCV replicon in Huh7 cells. The test can be described thus: HCV replicon cell-based assay. More on the design: species or system HCV strain 1B. The note with it: Hepatitis C virus, Huh-7, 96 h; HCV replicon, Huh7 cells, 4 days; activity ranges; read-out: EC50. The source says: An HCV replicon whole cell system was established as described by Lohmann V, Korner F, Koch J, Herian U, Theilmann L, Bartenschlager R., Science 285(5424):110-3 (1999). This system enabled us to evaluate the effects of our HCV Protease compounds on HCV RNA replication. Briefly, using the HCV strain 1B sequence described in the Lohmann paper (Assession number:AJ238799), an HCV cDNA was generated encoding the 5′ internal ribosome entry site (IRES), the neo gene, the EMCV-IRES and the HCV nonstructural proteins, NS3-NS5B, and 3′ NTR. […] Resulting cell lines were characterized for positive and negative RNA production and protein production over time.
Huh7 cells, constitutively expressing the HCV replicon, were grown in DMEM containing 10% FCS (Fetal calf serum) and 1 mg/ml G418 (Gibco-BRL). Cells were seeded the night before (1.5×10^4 cells/well) in 96-well tissue-culture sterile plates. Compound was prepared in DMEM containing 4% FCS, 1:100 Penicillin/Streptomysin, 1:100 L-glutamine and 0.5% DMSO. Compound/DMSO mixes were added to the cells and incubated for 4 days at 37° C. After 4 days, cells were either lyzed using the Rneasy kit (Qiagen) to isolate and purify RNA for an EC50 determination or assessed for cytotoxicity using alamar Blue (Trek Diagnotstic Systems) for a CC50 reading. For an EC50 determination, purified total RNA was normalized using RiboGreen (Jones L J, Yue S T, Cheung C Y, Singer V L, Anal. Chem., 265(2):368-74 (1998)) and relative quantitation of HCV RNA expression assessed using the Taqmann procedure (Kolykhalov A A, Mihalik K, Feinstone S M, Rice C M, Journal of Virology 74, 2046-2051 (2000)). Briefly, RNA made to a volume of 5 μl (≦1 ng) was added to a 20 μl Ready-Mix containing the following: 5×EZ rTth buffer, 3 mM MnOAc2, 3 mM dNTPs, 200 nM forward primer, 600 nM reverse primer, 100 nM probe and rTth polymerase. Samples containing known concentrations of HCV RNA transcript were run as standards. Using the following cycling protocol (95° C., 1 min; 60° C., 0.5 min; 95° C., 2 min; 40 cycles of 94° C., 0.5 min, 60° C.; 1 min; and completing with 60° C., 10 min), HCV RNA expression was quantitated as described in the Perkin Elmer manual. The toxicity of compound (CC50) was determined by adding 1/10th volume of alamar Blue to the media incubating the cells. After 4 hr, the fluorescence signal from each well was read, with an excitation wavelength at 530 nm and an emission wavelength of 580 nm, using the Cytofluor Series 4000 (Perspective Biosystems).
(In general: Replicon systems follow genome replication, usually without infectious particles.)

Where only a bound is given, the exact number is not on record here.

Sequence of HCV NS3/4A protease complex (P27958 1027-1711, stated change not applied): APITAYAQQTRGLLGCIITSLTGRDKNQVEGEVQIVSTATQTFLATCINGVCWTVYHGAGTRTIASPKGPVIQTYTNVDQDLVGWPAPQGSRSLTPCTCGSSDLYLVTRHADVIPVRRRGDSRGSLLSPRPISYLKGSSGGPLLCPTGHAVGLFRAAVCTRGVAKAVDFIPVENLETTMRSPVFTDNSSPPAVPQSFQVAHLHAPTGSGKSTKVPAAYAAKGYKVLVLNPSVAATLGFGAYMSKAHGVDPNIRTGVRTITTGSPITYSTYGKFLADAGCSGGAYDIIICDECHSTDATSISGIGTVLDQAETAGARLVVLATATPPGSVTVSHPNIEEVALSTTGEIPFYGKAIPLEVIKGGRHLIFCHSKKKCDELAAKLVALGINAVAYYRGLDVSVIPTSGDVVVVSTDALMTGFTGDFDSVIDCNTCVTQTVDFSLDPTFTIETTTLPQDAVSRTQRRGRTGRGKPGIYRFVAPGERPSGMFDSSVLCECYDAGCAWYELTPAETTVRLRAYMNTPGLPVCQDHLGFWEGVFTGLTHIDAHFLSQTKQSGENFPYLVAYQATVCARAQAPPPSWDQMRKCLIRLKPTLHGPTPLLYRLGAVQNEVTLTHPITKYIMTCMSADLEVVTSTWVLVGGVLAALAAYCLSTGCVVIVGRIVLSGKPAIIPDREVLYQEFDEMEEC
Sequence of HCV NS3/4A protease complex (P27958 1027-1711, stated change not applied): as above

In general, IC50 refers to the concentration that gives 50% inhibition. As usually defined, the EC50 is the concentration needed to bring the measured effect to its halfway point. In the case of `C=COC(=O)N[C@H](C(=O)N1C[C@H](Oc2cc(-c3ccccc3)nc3cc(OC)ccc23)CC1C(=O)N[C@]1(C(=O)NS(=O)(=O)C2CC2)C[C@H]1C=C)C(C)(C)C` (stereo partly drawn) [Compound 123, {1S-[2S-(1R-cyclopropanesulfonylaminocarbonyl-2S-vinyl-cyclopropylcarbamoyl)-4R-(7-methoxy-2-phenyl-quinolin-4-yloxy)-pyrrolidine-1-carbonyl]-2,2-dimethyl-propyl}-carbamic acid vinyl ester], in test [1], the IC50 is under 50 nM. For the same molecule, the EC50 in test [2] was under 50 nM.

Regarding `C=C[C@@H]1C[C@]1(NC(=O)C1C[C@@H](Oc2cc(-c3ccccc3)nc3cc(OC)ccc23)CN1C(=O)[C@@H](NC(=O)OCC(C)(C)C)C(C)(C)C)C(=O)NS(=O)(=O)C1CC1` (stereo partly drawn) [Compound 125, {1S-[2S-(1R-cyclopropanesulfonylaminocarbonyl-2S-vinyl-cyclopropylcarbamoyl)-4R-(7-methoxy-2-phenyl-quinolin-4-yloxy)-pyrrolidine-1-carbonyl]-2,2-dimethyl-propyl}-carbamic acid 2,2-dimethyl-propyl ester], the IC50 in test [1] is under 50 nM. Also, the EC50 in test [2] is under 50 nM.

As for `C=CC1C[C@]1(NC(=O)[C@@H]1C[C@@H](Oc2cc(-c3ccccc3)nc3cc(OC)ccc23)CN1C(=O)[C@@H](NC(=O)OC(C)(C)C)C1CCCC1)C(=O)NS(=O)(=O)C(C)C` (some centres unmarked) [Compound 30], in test [1], the half-inhibitory concentration (IC50) was under 50 nM. In test [2], the half-maximal effective concentration (EC50) was under 50 nM.

For the molecule `C=CCC[C@](C)(NC(=O)[C@@H]1C[C@@H](Oc2cc(-c3ccccc3)nc3cc(OC)ccc23)CN1C(=O)C(NC(=O)OC(C)(C)C)C(C)(C)C)C(=O)NS(=O)(=O)c1ccc(C)cc1` (some centres unmarked) [Compound 37], the IC50 in test [1] was under 50 nM. In addition, the EC50 in test [2] was under 50 nM.

In the case of `CCC(C)[C@H](NC(=O)OC(C)(C)C)C(=O)N1C[C@H](Oc2cc(-c3ccccc3)nc3cc(OC)ccc23)C[C@H]1C(=O)NC1(C(=O)NS(=O)(=O)C2CC2)CC1` (some centres unmarked) [Compound 68], the IC50 in test [1] is under 50 nM. Besides, the concentration giving a half-maximal response (EC50) in test [2] is under 5000 nM.

With `C=CC1CC1(NC(=O)[C@@H]1C[C@@H](Oc2cc(-c3ccccc3)nc3cc(OC)ccc23)CN1C(=O)[C@@H](NC(=O)OC(C)(C)C)C(C)(C)C)C(=O)NS(=O)(=O)C1CC1` (some centres unmarked) [Compound 91], the IC50 in test [1] was under 50 nM. Besides, in test [2], the EC50 is under 50 nM.

With `C=C[C@@H]1C[C@]1(NC(=O)C1C[C@@H](Oc2cc(-c3ccccc3)nc3cc(OC)ccc23)CN1C(=O)[C@@H](NC(=O)OCCCC)C(C)(C)C)C(=O)NS(=O)(=O)C1CC1` (stereo partly drawn) [Compound 127, {1S-[2S-(1R-cyclopropanesulfonylaminocarbonyl-2S-vinyl-cyclopropylcarbamoyl)-4R-(7-methoxy-2-phenyl-quinolin-4-yloxy)-pyrrolidine-1-carbonyl]-2,2-dimethyl-propyl}-carbamic acid butyl ester], the IC50 in test [1] is under 50 nM. In addition, the half-maximal effective concentration (EC50) in test [2] is under 50 nM.

Turning to `C=C[C@@H]1C[C@]1(NC(=O)C1CC(Oc2cc(-c3ccccc3)nc3cc(OC)ccc23)CN1C(=O)[C@@H](NC(=O)OC)C(C)(C)C)C(=O)NS(=O)(=O)C1CC1` (stereo partly drawn) [Compound 113, {1S-[2S-(1R-cyclopropanesulfonylaminocarbonyl-2S-vinyl-cyclopropylcarbamoyl)-4R-(7-methoxy-2-phenyl-quinolin-4-yloxy)-pyrrolidine-1-carbonyl]-2,2-dimethyl-propyl}carbamic acid methyl ester], the concentration for half-maximal inhibition (IC50) in test [1] is under 50 nM. Moreover, in test [2], the EC50 was under 50 nM.

Take `C=C[C@@H]1C[C@]1(NC(=O)C1C[C@@H](Oc2cc(-c3ccccc3)nc3cc(OC)ccc23)CN1C(=O)[C@@H](NC(=O)CO)C(C)(C)C)C(=O)NS(=O)(=O)C1CC1` (stereo partly drawn) [Compound 102, 1-[2S-(2-hydroxy-acetylamino)-3,3-dimethyl-butyryl]-4R-(7-methoxy-2-phenyl-quinolin-4-yloxy)-pyrrolidine-2S-carboxylic acid (1R-cyclopropanesulfonylamino-carbonyl-2S-vinyl-cyclopropyl)-amide]: the IC50 in test [1] was under 50 nM. Also, the concentration for a half-maximal effect (EC50) in test [2] was under 500 nM.

Take `C=CC1C[C@]1(NC(=O)[C@@H]1C[C@@H](Oc2cc(-c3ccccc3)nc3cc(OC)ccc23)CN1C(=O)[C@@H](NC(=O)OC(C)(C)C)C(C)(C)C)C(=O)NS(=O)(=O)c1ccc([N+](=O)[O-])cc1` (some centres unmarked) [Compound 52]: the half-inhibitory concentration (IC50) in test [1] is under 500 nM. Further, the half-maximal effective concentration (EC50) in test [2] was under 500 nM.

As to `C=CC1C[C@]1(NC(=O)[C@@H]1C[C@@H](Oc2cc(-c3ccccc3)nc3cc(OC)ccc23)CN1C(=O)[C@@H](NC(=O)OC(C)(C)C)C(C)(C)C)C(=O)NS(=O)(=O)c1ccccc1C#N` (some centres unmarked) [Compound 50], in test [1], the IC50 is under 500 nM. For the same molecule, in test [2], the EC50 was under 5000 nM.

On to `C=CC1C[C@]1(NC(=O)[C@@H]1C[C@@H](Oc2cc(-c3ccccc3)nc3cc(OC)ccc23)CN1C(=O)C(NC(=O)OC(C)(C)C)C(C)(C)C)C(=O)NS(=O)(=O)c1cccc2ccccc12` (some centres unmarked) [Compound 35], for which, in test [1], the concentration for half-maximal inhibition (IC50) is under 50 nM. Besides, the concentration giving a half-maximal response (EC50) in test [2] is under 500 nM.

Consider `C=C[C@@H]1C[C@]1(NC(=O)C1C[C@@H](Oc2cc(-c3ccccc3)nc3cc(OC)ccc23)CN1C(=O)[C@@H](NC(=O)C1(O)CC1)C(C)(C)C)C(=O)NS(=O)(=O)C1CC1` (stereo partly drawn) [Compound 111, 1-{2S-[(1-hydroxy-cyclopropanecarbonyl)-amino]-3,3-dimethyl-butyryl}-4R-(7-methoxy-2-phenyl-quinolin-4-yloxy)pyrrolidine-2S-carboxylic acid (1R-cyclopropanesulfonylaminocarbonyl-2S-vinylcyclopropyl)amide], for which the IC50 in test [1] was under 50 nM. In test [2], the EC50 was under 5000 nM.
